From patent US9540391B2, “Isomannide derivatives as inhibitors of soluble epoxide hydrolase” (SANOFI, priority 2013, dated 2017)
Counter-ions that a name gives are not always drawn.

Molecular target: T1, recombinant sEH (Homo sapiens, UniProt P34913)
T1 construct: made in house; host or cells: Sf9 insect cells
T1 sequence (P34913 1-555): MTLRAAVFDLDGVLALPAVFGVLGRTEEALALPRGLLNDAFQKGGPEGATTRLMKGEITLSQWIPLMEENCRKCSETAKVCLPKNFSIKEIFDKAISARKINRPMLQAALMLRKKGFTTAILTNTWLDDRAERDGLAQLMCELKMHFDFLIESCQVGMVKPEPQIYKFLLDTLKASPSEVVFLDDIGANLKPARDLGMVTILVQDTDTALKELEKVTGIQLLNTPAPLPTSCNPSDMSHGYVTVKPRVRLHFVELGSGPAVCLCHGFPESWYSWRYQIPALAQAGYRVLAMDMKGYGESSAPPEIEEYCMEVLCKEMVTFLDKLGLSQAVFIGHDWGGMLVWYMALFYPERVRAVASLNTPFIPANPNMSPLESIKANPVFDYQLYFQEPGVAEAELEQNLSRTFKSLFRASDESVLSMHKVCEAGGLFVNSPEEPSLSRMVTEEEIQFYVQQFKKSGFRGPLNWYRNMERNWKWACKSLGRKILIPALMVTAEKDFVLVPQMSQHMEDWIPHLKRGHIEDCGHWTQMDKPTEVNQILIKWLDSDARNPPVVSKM
Test: biochemical screening assay for inhibition of soluble epoxide hydrolase (fluorometric, Phome substrate)
Procedure, shortened: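 Reading fluorescence before substrate addition and after completion corrected for autofluorescence. Reaction: 5 μM Phome, 2 nM recombinant human sEH (Sf9-expressed), compound 0.0001–10 μM, 25 mM Hepes with 0.01% albumin, 15 min pre-incubation then 60 min at 30 °C; IC50 derived from % inhibition.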

Row | SMILES | IC50
1 | O=C(NC1CCCCC1)N[C@H]1CO[C@H]2[C@@H]1OC[C@@H]2Oc1cccc(N2CCCCC2)c1 [Example 75, 1-cyclohexyl-3-[(3S,3aR,6S,6aS)-6-(3-piperidin-1-yl-phenoxy)-hexahydro-furo[3,2-b]furan-3-yl]-urea] | 2 nM
2 | Cc1ncccc1OC1COC2C(NC(=O)NCc3ccc(F)cc3)COC12 [Example 180, 1-(4-Fluoro-benzyl)-3-[(3S,3aR,6S,-6aS)-6-(2-methyl-pyridin-3-yloxy)-hexahydro-furo[3,2-b]furan-3-yl]-urea] | 55 nM
3 | O=C(NC1CCCCC1)N[C@H]1CO[C@H]2[C@@H]1OC[C@@H]2Oc1ccccc1C(=O)N1CCCC1 [Example 110, 1-Cyclohexyl-3-{(3S,3aR,6S,6aS)-6-[2-(pyrrolidine-1-carbonyl)-phenoxy]-hexahydro-furo[3,2-b]furan-3-yl}-urea] | 140 nM
4 | Cc1ncccc1O[C@H]1CO[C@H]2[C@@H]1OC[C@@H]2NC(=O)NC1(c2cccc(F)c2)CCCC1 [Example 229, 1-[1-(3-Fluoro-phenyl)-cyclopentyl]-3-[(3S,3aR,6S,6aS)-6-(2-methyl-pyridin-3-yloxy)-hexahydro-furo[3,2-b]furan-3-yl]-urea] | 1160 nM
5 | Cc1ncccc1O[C@H]1CO[C@H]2[C@@H]1OC[C@@H]2NC(=O)NC(C)c1c(C)nn(C)c1C (stereo partly drawn) [Example 234, 1-[(3S,3aR,6S,6aS)-6-(2-Methyl-pyridin-3-yloxy)-hexahydro-furo[3,2-b]furan-3-yl]-3-[1-(1,3,5-trimethyl-1H-pyrazol-4-yl)-ethyl]-urea] | 172 nM
6 | Cc1ncccc1O[C@H]1CO[C@H]2[C@@H]1OC[C@@H]2NC(=O)NC1CCCCC1C(C)(C)C (stereo partly drawn) [Example 271, 1-(2-tert-Butyl-cyclohexyl)-3-[(3S,3aR,6S,6aS)-6-(2-methyl-pyridin-3-yloxy)-hexahydro-furo[3,2-b]furan-3-yl]-urea] | 99 nM
7 | COc1cc(NC(=O)N[C@H]2CO[C@@H]3[C@@H]2OC[C@H]3C#Cc2ccccc2)cc(OC)c1 [Example 284, 1-(3,5-Dimethoxy-phenyl)-3-[(3S,3aR,6R)-6-((S)-phenylethynyl)-hexahydro-furo[3,2-b]furan-3-yl]-urea] | 71 nM
8 | CCN(CC)c1ccc(O[C@H]2CO[C@H]3[C@@H]2OC[C@@H]3NC(=O)NC2CCCCC2)cn1 [Example 72, 1-Cyclohexyl-3-[(3S,3aR,6S,6aS)-6-(6-diethylamino-pyridin-3-yloxy)-hexa-hydro-furo[3,2-b]furan-3-yl]-urea] | < 1 nM
9 | O=C(NC1CCCCC1)N[C@H]1CO[C@H]2[C@@H]1OC[C@@H]2Oc1cccc(C2CCNCC2)c1 [Example 108, 1-Cyclohexyl-3-[(3S,3aR,6S,6aS)-6-(3-piperidin-4-yl-phenoxy)-hexahydro-furo[3,2-b]furan-3-yl]-urea; trifluoroacetate] | 23 nM
10 | Cc1cccc(NC(=O)N[C@H]2CO[C@@H]3[C@@H]2OC[C@H]3C#Cc2ccccc2)c1 [Example 289, 1-[(3S,3aR,6R)-6-((S)-Phenylethynyl)-hexahydro-furo[3,2-b]furan-3-yl]-3-m-tolyl-urea] | 35 nM
11 | Cc1ncccc1O[C@H]1CO[C@H]2[C@@H]1OC[C@@H]2NC(=O)NC(C)(C)c1cccnc1 [Example 233, 1-(1-Methyl-1-pyridin-3-yl-ethyl)-3-[(3S,3aR,6S,6aS)-6-(2-methyl-pyridin-3-yloxy)-hexahydro-furo[3,2-b]furan-3-yl]-urea] | 3560 nM
12 | O=C(NCc1ccc(F)cc1)NC1COC2C(CCc3ccsc3)COC12 [Example 364, 1-(4-Fluoro-benzyl)-3-[(3S,3aR,6R)-6-((S)-2-thiophen-3-yl-ethyl)-hexa-hydro-furo[3,2-b]furan-3-yl]-urea] | 29 nM
13 | Cc1cc(O[C@H]2CO[C@H]3[C@@H]2OC[C@@H]3NC(=O)NC2CCCCC2)cc(C)n1 [Example 67, 1-Cyclohexyl-3-[(3S,3aR,6S,6aS)-6-(2,6-dimethyl-pyridin-4-yloxy)-hexa-hydro-furo[3,2-b]furan-3-yl]-urea] | 1 nM
